One experiment addresses PRMT5-MTA (Homo sapiens, UniProt O14744). Briefly: Enzymatic inhibitory activity against PRMT5-MTA (AlphaScreen). The experiment is classed as biochemical. The conditions noted are these: read-out: IC50. A digest of the protocol:
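PRMT5/[…] (1 nM) was preincubated for 30 min at room temperature with 1 µM […] and 2.5 µM SAM, then exposed to compound (10-point, 3-fold from 1000 nM) for 15 min at 23 °C. Histone H4 substrate (5 nM) was added and reacted for 45 min at 23 °C. Symmetric dimethyl-R3 H4 was detected by AlphaScreen and IC50 calculated.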

In the next experiment the test system is HCT116 MTAP KO cells. The experiment in a line: Inhibitory activity against cell proliferation (CellTiter Glo, 6 days), HCT116 MTAP KO. The experiment is classed as cell-based. The conditions noted are these: for IC50: Homo sapiens, HCT-116, 144 h, HCT116 MTAP KO cells, 6 days, CellTiter Glo, read-out: HCT116 MTAP KO IC50; for Selectivity HCT 116-WT/ HCT116 MTAP KO: ratio of IC50 HCT116-WT / HCT116 MTAP KO. A digest of the protocol:
(§1)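 HCT116 wild-type or MTAP-knockout cells (250/well, McCoy's 5A + 10% FBS) treated after overnight culture with 8-point 4-fold dilutions from 10000 nM for 6 days at 37 °C. Viability read by CellTiter Glo luminescence on day 7; IC50 calculated against DMSO controls.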
(In general: Cellular ATP, detected with luciferase, serves as a proxy for viable cell number.)

In the next experiment the test system is HCT116-WT cells. Briefly: Inhibitory activity against cell proliferation (CellTiter Glo, 6 days), HCT116-WT. Type of experiment: cell-based. Particulars: 144 h, HCT116-WT cells, 6 days, CellTiter Glo; read-out: HCT116-WT IC50. A digest of the protocol:
as §1

Molecules are shown by their SMILES.

The term IC50 denotes the point on the concentration scale where inhibition reaches its midpoint.

Chain of PRMT5-MTA (O14744 whole entry): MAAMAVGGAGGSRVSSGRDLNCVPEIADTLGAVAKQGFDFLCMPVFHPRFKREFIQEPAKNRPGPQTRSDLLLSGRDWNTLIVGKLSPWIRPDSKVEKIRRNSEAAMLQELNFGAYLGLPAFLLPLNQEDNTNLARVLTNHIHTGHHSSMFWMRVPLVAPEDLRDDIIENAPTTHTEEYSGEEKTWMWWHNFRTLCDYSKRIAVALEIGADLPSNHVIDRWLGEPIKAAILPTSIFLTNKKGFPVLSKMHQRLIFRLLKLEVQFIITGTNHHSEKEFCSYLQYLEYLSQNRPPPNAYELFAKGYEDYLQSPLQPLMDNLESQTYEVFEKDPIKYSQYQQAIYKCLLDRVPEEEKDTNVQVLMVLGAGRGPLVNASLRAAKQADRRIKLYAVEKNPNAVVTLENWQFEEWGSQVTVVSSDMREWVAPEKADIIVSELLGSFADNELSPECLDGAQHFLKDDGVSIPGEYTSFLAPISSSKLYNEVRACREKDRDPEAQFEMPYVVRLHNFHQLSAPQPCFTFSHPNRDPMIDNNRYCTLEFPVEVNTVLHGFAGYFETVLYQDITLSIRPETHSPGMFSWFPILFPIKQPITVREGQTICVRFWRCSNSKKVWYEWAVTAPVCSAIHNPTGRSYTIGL
Chain of PRMT5-MTA (Q9BQA1 whole entry partner): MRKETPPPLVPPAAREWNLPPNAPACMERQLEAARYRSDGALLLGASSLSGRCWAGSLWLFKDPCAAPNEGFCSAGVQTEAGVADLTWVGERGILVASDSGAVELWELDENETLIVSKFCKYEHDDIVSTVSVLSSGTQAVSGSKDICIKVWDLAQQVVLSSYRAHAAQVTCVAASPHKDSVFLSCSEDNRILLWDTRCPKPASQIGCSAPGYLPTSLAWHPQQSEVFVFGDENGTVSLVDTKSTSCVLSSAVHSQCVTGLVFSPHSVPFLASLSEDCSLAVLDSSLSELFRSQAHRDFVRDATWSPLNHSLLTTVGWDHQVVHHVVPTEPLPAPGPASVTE

As for `CN(c1ncccn1)N(Cc1ccc(C(F)(F)F)cn1)C(=O)c1ccc2nc(N)c3cnccc3c2c1` [Example 308, 5-amino-N'-methyl-N'-(pyrimidin-2-yl)-N-((5-(trifluoromethyl)pyridin-2-yl)methyl)ben zo[c][2,7]naphthyridine-9-carbohydrazide], the half-inhibitory concentration (IC50) at PRMT5-MTA was 1.1 nM; in the experiment with HCT116 MTAP KO cells, 11 nM; in the experiment on HCT116-WT cells it was 216 nM. The “Selectivity HCT 116-WT/ HCT116 MTAP KO” value in the experiment with HCT116 MTAP KO cells was 19.64.
For the compound `COC1CN(C(=O)c2cc3c(cc2Cl)nc(N)c2cnn(C)c23)N(c2ncc(Br)cc2F)C1` (stereo not drawn) [Example 439, (4-amino-7-chloro-1-methyl-1H-pyrazolo [4,3-c]quinolin-8-yl)(2-(5-bromo-3-fluor opyridin-2-yl)-4-methoxypyrazolidin-1-yl)methanone], the IC50 on PRMT5-MTA amounted to 5.5 nM; with HCT116 MTAP KO cells, 37 nM; in the experiment on HCT116-WT cells it was 735 nM. For the same compound, the “Selectivity HCT 116-WT/ HCT116 MTAP KO” value in the experiment on HCT116 MTAP KO cells came out at 19.86.
Regarding `Cc1cc2nc(N)c3cnn(C)c3c2cc1C(=O)N1CC(C)CN1c1ncc(-c2cnc3c(cnn3C)c2)cc1F` (stereo not drawn) [Example 479, (4-amino-1,7-dimethyl-1H-pyrazolo[4,3-c]quinolin-8-yl)(2-(3-fluoro-5-(1-methyl-1H-pyrazolo[3,4-b]pyridin-5-yl)pyridin-2-yl)-4-methylpyrazolidin-1-yl)methanone], the values for the IC50 at PRMT5-MTA, in the experiment on HCT116 MTAP KO cells and in the experiment on HCT116-WT cells were 5.3 nM, 32 nM and 1270 nM, respectively. For the same compound, the “Selectivity HCT 116-WT/ HCT116 MTAP KO” value in the experiment on HCT116 MTAP KO cells is 39.66.
With `Cc1cc2cc(C(=O)N(Cc3ccc(Br)cc3F)N(C)c3ncccn3)ccc2nc1N` [Example 84, 2-amino-N-(4-bromo-2-fluorobenzyl)-N', 3-dimethyl-N'-(pyrimidin-2-yl)quinoline-6-carbohydrazide], the IC50 amounted to 3.4 nM on PRMT5-MTA, 58 nM with HCT116 MTAP KO cells and 1630 nM with HCT116-WT cells. Also, the “Selectivity HCT 116-WT/ HCT116 MTAP KO” value in the experiment on HCT116 MTAP KO cells was 28.17.
On to `[2H]C([2H])([2H])N(c1nccc2nccnc12)N(Cc1ccc(Br)cn1)C(=O)c1ccc2nc(N)c(C)cc2c1` [Example 63, 2-amino-N-((5-bromopyridin-2-yl)methyl)-3-methyl-N'-(methyl-d3)-N'-(pyrido[3,4-b]pyrazin-5-yl)quinoline-6-carbohydrazide], for which the IC50 on PRMT5-MTA stood at 3.2 nM; in the experiment with HCT116 MTAP KO cells, 53 nM; in the experiment on HCT116-WT cells it was 1010 nM. In addition, the “Selectivity HCT 116-WT/ HCT116 MTAP KO” value in the experiment on HCT116 MTAP KO cells is listed as 19.02.
Take `COC1CN(C(=O)c2cc3c(cc2C)nc(N)c2cnn(C)c23)N(c2ncccc2F)C1` (stereo not drawn) [Example 417, (4-amino-1,7-dimethyl-1H-pyrazolo[4,3-c]quinolin-8-yl)(2-(3-fluoropyridin-2-yl)-4-methoxypyrazolidin-1-yl)methanone]: the results for the IC50 at PRMT5-MTA, with HCT116 MTAP KO cells and in the experiment with HCT116-WT cells were 3.8 nM, 20 nM and 790 nM, respectively. In addition, the “Selectivity HCT 116-WT/ HCT116 MTAP KO” value in the experiment with HCT116 MTAP KO cells was 39.50.
Turning to `Cc1cc2cc(C(=O)N(Cc3ccc(C(F)(F)F)cn3)N(C)c3ncc4ncccc4n3)ccc2nc1N` [Example 80, 2-amino-N',3-dimethyl-N'-(pyrido[3,2-d]pyrimidin-2-yl)-N-((5-(trifluoromethyl)pyridin-2-yl)methyl)quinoline-6-carbohydrazide], the values for the IC50 on PRMT5-MTA, in the experiment on HCT116 MTAP KO cells and in the experiment with HCT116-WT cells were 1.9 nM, 132 nM and 1870 nM, respectively. Further, the “Selectivity HCT 116-WT/ HCT116 MTAP KO” value in the experiment on HCT116 MTAP KO cells was 14.18.
Consider `C=C1CN(C(=O)c2cc3c(cc2Cl)nc(N)c2cnn(C)c23)N(c2ncc(Br)cc2F)C1` [Example 430, (4-amino-7-chloro-1-methyl-1H-pyrazolo [4,3-c]quinolin-8-yl)(2-(5-bromo-3-fluor opyridin-2-yl)-4-methylenepyrazolidin-1-yl)methanone], for which the IC50 at PRMT5-MTA came to 5.5 nM; with HCT116 MTAP KO cells, 22 nM; in the experiment with HCT116-WT cells it was 585 nM. For the same compound, the “Selectivity HCT 116-WT/ HCT116 MTAP KO” value in the experiment with HCT116 MTAP KO cells was found to be 26.59.
On to `CC1CN(C(=O)c2cc3c(cc2Cl)nc(N)c2cnn(C)c23)N(c2ncccc2F)C1` (stereo not drawn) [Example 398, (4-amino-7-chloro-1-methyl-1H-pyrazolo [4,3-c]quinolin-8-yl)(2-(3-fluoropyridin-2-yl)-4-methylpyrazolidin-1-yl)methanone], for which the figures for the IC50 on PRMT5-MTA, with HCT116 MTAP KO cells and in the experiment on HCT116-WT cells were 3.9 nM, 39 nM and 1620 nM, respectively. In the experiment on HCT116 MTAP KO cells, the “Selectivity HCT 116-WT/ HCT116 MTAP KO” value is reported as 41.49.
In the case of `Cc1cc2cc(C(=O)N(Cc3ccc(C(F)(F)F)cn3)N(C)c3nccc4sccc34)ccc2nc1N` [Example 271, 2-amino-N',3-dimethyl-N'-(thieno[3,2-c]pyridin-4-yl)-N-((5-(trifluoromethyl)pyridin-2-yl)methyl)quinoline-6-carbohydrazide], the IC50 on PRMT5-MTA came to 2.7 nM; in the experiment on HCT116 MTAP KO cells, 89 nM; with HCT116-WT cells, 1190 nM. Besides, the “Selectivity HCT 116-WT/ HCT116 MTAP KO” value with HCT116 MTAP KO cells turned out to be 13.42.
For the compound `Cc1cc2nc(N)c3cnn(C)c3c2cc1C(=O)N1CC(C)CN1c1ccccc1C(F)(F)F` (stereo not drawn) [Example 378, (4-amino-1,7-dimethyl-1H-pyrazolo[4,3-c]quinolin-8-yl)(4-methyl-2-(2-(trifluoromethyl)phenyl)pyrazolidin-1-yl)methanone], the IC50 at PRMT5-MTA came to 6.6 nM; in the experiment with HCT116 MTAP KO cells it was 316 nM; with HCT116-WT cells it was 6760 nM. For the same compound, in the experiment on HCT116 MTAP KO cells, the “Selectivity HCT 116-WT/ HCT116 MTAP KO” value amounted to 21.39.
For the compound `Cn1ncc2c(N)nc3cc(Cl)c(C(=O)N4CC5(CN4c4ncccc4F)CC(F)(F)C5)cc3c21` [Example 411, (4-amino-7-chloro-1-methyl-1H-pyrazolo [4,3-c]quinolin-8-yl)(2,2-difluoro-7-(3-fluoropyridin-2-yl)-6,7-diazaspiro[3.4]octan-6-yl)methanone], the half-inhibitory concentration (IC50) was found to be 6.3 nM on PRMT5-MTA, 15 nM in the experiment with HCT116 MTAP KO cells and 221 nM in the experiment on HCT116-WT cells. Also, the “Selectivity HCT 116-WT/ HCT116 MTAP KO” value in the experiment with HCT116 MTAP KO cells was determined as 14.73.
On to `Cc1cc2cc(C(=O)N(Cc3ccc(C(F)(F)F)cn3)N(C)c3c(F)ccc4nccnc34)ccc2nc1N` [Example 125, 2-amino-N'-(6-fluoroquinoxalin-5-yl)-N',3-dimethyl-N-((5-(trifluoromethyl)pyridin-2-yl)methyl)quinoline-6-carbohydrazide], for which the 50% inhibitory concentration (IC50) amounted to 1.7 nM at PRMT5-MTA, 84 nM in the experiment with HCT116 MTAP KO cells and 2310 nM in the experiment on HCT116-WT cells. In the experiment on HCT116 MTAP KO cells, the “Selectivity HCT 116-WT/ HCT116 MTAP KO” value was 27.54.
The like results for `CN(c1ncccn1)N(Cc1ccc(-c2cnn(C(F)(F)F)c2)cn1)C(=O)c1ccc2nc(N)c(CO)cc2c1` [Example 322, 2-amino-3-(hydroxymethyl)-N'-methyl-N '-(pyrimidin-2-yl)-N-((5-(1-(trifluoromethyl)-1H-pyrazol-4-yl)pyridin-2-yl)methyl) quinoline-6-carbohydrazide] were, in that order, 4.4 nM, 268 nM, 4370 nM and 16.31.
For `COC1(c2ccc(CN(C(=O)c3ccc4nc(N)c(C)cc4c3)N(C)c3ncccn3)nc2)COC1` [Example 284, 2-amino-N-((5-(3-methoxyoxetan-3-yl)pyridin-2-yl)methyl)-N',3-dimethyl-N'-(pyrimidin-2-yl)quinoline-6-carbohydrazide], the IC50 amounted to 2.3 nM on PRMT5-MTA, 194 nM in the experiment on HCT116 MTAP KO cells and 3440 nM in the experiment on HCT116-WT cells. The “Selectivity HCT 116-WT/ HCT116 MTAP KO” value in the experiment on HCT116 MTAP KO cells amounted to 17.71.

The values above are taken from patent publication EP4745134A1 (Jiangsu Yahong Meditech Co., Ltd., priority 2023, dated 2025).
